Results published in patent US20100197688A1, “EPHA4 RTK INHIBITORS FOR TREATMENT OF NEUROLOGICAL AND NEURODEGENERATIVE DISORDERS AND CANCER” (priority 2008, published 2010).

Legend:
[1] = system: Primary Rat cortical astrocytes; assay: Scratch wound assay, astrocytes; type: cell-based
Protocol: Primary Rat cortical astrocytes were purchased from Lonza (Walkersvelle Inc., MA, USA). Cells were plated in culture flasks at a density of 1.106-3.106 cells/ml, and maintained at 37° C. and […], in Astrocyte Growth Medium Bulletkit™ (Lonza Walkersville Inc., MA, USA). When astrocyte cultures reached confluence, cells were trypsinized and replated at 6.105 cells/ml onto 24 well ImageLock™ plate (Essen Instruments, Mich., USA).
Scratch wound assays are commonly used to assess the effects of drugs and drug candidates on the cellular proliferation and/or migration associated with wound closing. The IncuCyte™ system (Essen Instruments, Mich., USA), an automated imaging platform, provides ongoing, real-time images and quantitative data generated throughout the wound-closing process. […] Wound closure can be automatically monitored using the wound confluence (% confluence). […]
The calculation of the area under the curve (AUC) of the % confluence function of the time gave a quantitative measurement of compounds efficacy on the scratch wound closing. […] The percentage of inhibition was calculated from the AUCs at each dose in comparison with the AUCs of the control wells (1% DMSO). Concentration-response curves were represented and the concentrations at the inflexion point (IP) were calculated. […]

[2] = target: T1, P38alpha kinase (Homo sapiens, UniProt Q16539); assay: P38 alpha kinase counterscreen assay (Caliper); type: biochemical
T1 construct: purchased Dundee Library
Protocol: A counterscreen assay was performed to measure p38alpha kinase activity using the Caliper System (LifeSciences, USA). This system is based on the microfluidic technology. P38 alpha kinase activity was measured by the shift in mobility of the non-phosphorylated form when separated by electrophoresis and detected via LED (Light Emitting Diode) induced fluorescence. This assay was automated following the manufacturer's protocol. P38alpha kinase and its substrate GST-MK2 were bought from Dundee Library.
Compounds were titrated, concentration-response curves were represented and the concentrations for 50% inhibition (IC50) were calculated.

T1 sequence (Q16539 whole entry): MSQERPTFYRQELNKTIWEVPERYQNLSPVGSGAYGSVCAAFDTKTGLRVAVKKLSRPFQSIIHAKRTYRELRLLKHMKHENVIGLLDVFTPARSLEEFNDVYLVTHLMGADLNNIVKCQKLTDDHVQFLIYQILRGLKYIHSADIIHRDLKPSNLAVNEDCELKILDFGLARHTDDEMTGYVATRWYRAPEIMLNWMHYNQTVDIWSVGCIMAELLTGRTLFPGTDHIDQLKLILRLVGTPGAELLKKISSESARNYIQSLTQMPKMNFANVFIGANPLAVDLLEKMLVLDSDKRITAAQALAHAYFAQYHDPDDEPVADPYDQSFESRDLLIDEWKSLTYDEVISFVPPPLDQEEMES

Cc1ccc(NC(=O)c2cccc(C(F)(F)F)c2)cc1-c1ccc(O)c(NC=O)c1 [Example 133]
IC50 ([1]; Rattus norvegicus, Astrocyte, inflexion point, from AUC of % wound confluence, read-out: Scratch Assay Astrocytes IP): 5 µM
Scratch Assay Astrocytes max inhibition in % ([1]; value in parentheses): 50%
IC50 [2]: 6.9 µM
